In publication PMC12596218 (Journal of Lipid Research, 2025):
“And” between values parts separate entries of the source, which are not always exact repeats. Identical values can stand only once. Like-named read-outs stand apart in the source and are kept apart here.

What was measured:
NTCP = target: T1, NTCP (Homo sapiens, UniProt Q14973); test: [3H]TC transport and inhibition assay in NTCP-HEK293 cells; type: cell-based; conditions: 1 μM [3H]TC; for NTCP inhibition (in words): inhibitor up to 100 μM; for IC50: 10 min, NTCP-HEK293, two independent experiments
T1 construct: stably transfected with the full open reading frames of human NTCP, ASBT, SOAT, OATP1B1, OATP1B3, OATP2B1, and murine Asbt (mAsbt); expressed in transfected cells; host or cells: HEK293 (Flp-In), stably transfected, tetracycline-induced
T1 sequence (Q14973 1-349): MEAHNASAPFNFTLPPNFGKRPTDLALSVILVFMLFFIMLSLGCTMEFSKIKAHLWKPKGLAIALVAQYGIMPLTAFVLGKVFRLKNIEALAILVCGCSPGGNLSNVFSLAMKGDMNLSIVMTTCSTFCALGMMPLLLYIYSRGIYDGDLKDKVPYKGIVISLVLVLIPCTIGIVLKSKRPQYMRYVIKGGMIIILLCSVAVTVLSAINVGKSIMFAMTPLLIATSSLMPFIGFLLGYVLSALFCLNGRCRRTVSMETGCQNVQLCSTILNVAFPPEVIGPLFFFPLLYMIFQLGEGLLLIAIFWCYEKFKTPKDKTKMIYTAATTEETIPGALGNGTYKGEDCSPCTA
Excerpt: Human embryonic kidney HEK293 cells, stably transfected with the full open reading frames of human NTCP, ASBT, SOAT, OATP1B1, OATP1B3, OATP2B1, and murine Asbt (mAsbt) were used as reported ([18], [20], [21], [22], [23]). The NTCP, ASBT, and mAsbt constructs were C-terminally tagged with the FLAG epitope, and the SOAT construct was C-terminally tagged with green fluorescent protein. Non-transfected Flp-In HEK293 cells (Thermo Fisher Scientific) served as the control. All cell lines were maintained at 37°C, 5% CO2 and 95% humidity in DMEM/F-12 medium (Thermo Fisher Scientific) supplemented with 10% fetal calf serum (Sigma-Aldrich), 4 mM L-glutamine (PAA) and penicillin/streptomycin (PAA). Expression of the respective carrier protein was induced by tetracycline treatment at 1 μg/ml (Carl Roth GmbH + Co. KG).
(§1) Cells were seeded onto poly-L-lysine-coated 96-well plates, induced with 1 μg/ml tetracycline, and grown to confluence over 72 h at 37°C. Then, cells were washed with tempered (37°C) phosphate-buffered saline (PBS, containing 137.0 mM NaCl, 2.7 mM KCl, 1.5 mM KH2PO4, and 7.3 mM Na2HPO4, at pH 7.4) and preincubated with 80 μl sodium transport buffer (STB, containing 142.9 mM NaCl, 4.7 mM KCl, 1.2 mM MgSO4, 1.2 mM KH2PO4, 1.8 mM CaCl2, and 20.0 mM HEPES, at pH 7.4) for 5 min at 37°C. For inhibition studies, the medium was replaced by 80 μl STB containing the respective inhibitor or solvent alone and cells were further incubated for 5 min at 37°C. Transport experiments were started by adding 20 μl of a 5-fold concentrated substrate solution (solved in STB). For transport experiments under sodium-free conditions the same buffer composition was used as for STB, but sodium chloride was substituted with equimolar concentrations of choline chloride as previously reported ([20], [24]). Transport experiments were stopped by washing twice with ice-cold PBS and the plates were kept cool on ice until adding the lysis buffer [1% sodium dodecyl sulfate (SDS) and 1 N NaOH]. Then, the cell-associated radioactivity of the respective tritium-labeled substrate or ligand was quantified by liquid scintillation counting using MicroScint-20 scintillation cocktail (Revvity) in a Packard Microplate Scintillation Counter TopCount NXT (Packard Instrument Company). For IC50 transport inhibition measurements, the mean uptake values measured in non-carrier-expressing HEK293 control cells were defined as 0% uptake control and were subtracted from all other values. Values from cells without inhibitor and solvent alone were set to 100%. Finally, all net transport data were expressed as uptake or binding as % of control. All transport or inhibition graphs were generated with GraphPad Prism 6 (GraphPad). Determination of half maximal inhibitory concentrations (IC50) was done by nonlinear regression analysis using the equation log (inhibitor) versus response—variable slope settings. All data points of the IC50 curves represent means ± SD of quadruplicate determinations. For Km measurements, BS uptake in the absence of sodium was regarded as carrier-independent unspecific uptake and was subtracted from the transport rates in the presence of sodium to obtain carrier-specific uptake rates (indicated as dashed lines). From the specific uptake rates, Michaelis Menten Km values were calculated by non-linear regression analysis.

[1] = target: T2, ASBT S294T/I295V (ASBT→mAsbt) (Homo sapiens, UniProt Q12908, I295V/S294T); test: [3H]TC transport and inhibition assay, ASBT→mAsbt mutant in HEK293 cells; type: cell-based; conditions: for Inhibition curve/AUC of ASBT→mAsbt mutant compared to wild-type ASBT: 1 μM [3H]TC, 10 min, AUC combined from two experiments
T2 construct: stably transfected with the full open reading frames of human NTCP, ASBT, SOAT, OATP1B1, OATP1B3, OATP2B1, and murine Asbt (mAsbt); expressed in transfected cells; host or cells: HEK293, stably transfected
T2 sequence (Q12908 1-348 S294T/I295V): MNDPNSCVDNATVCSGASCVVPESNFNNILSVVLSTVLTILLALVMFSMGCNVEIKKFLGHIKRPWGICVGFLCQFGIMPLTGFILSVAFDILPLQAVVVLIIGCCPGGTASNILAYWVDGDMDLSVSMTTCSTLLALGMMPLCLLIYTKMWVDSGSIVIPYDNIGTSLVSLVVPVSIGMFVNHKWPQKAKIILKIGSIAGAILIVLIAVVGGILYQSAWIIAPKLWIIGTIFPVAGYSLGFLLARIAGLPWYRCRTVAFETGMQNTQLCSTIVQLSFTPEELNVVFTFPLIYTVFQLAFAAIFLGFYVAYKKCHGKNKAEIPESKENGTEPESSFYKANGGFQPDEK
Procedure: Amplification was performed on a peqSTAR XS PEQLAB PCR cycler (Peqlab) with Pfu DNA polymerase (M774A; Promega) in 18 cycles under the following conditions: initial denaturation for 2 min at 95°C, denaturation for 30 s at 95°C, annealing for 1 min at 55°C, extension for 8 min and 30 s at 72°C, final elongation for 10 min at 72°C and final hold at 4°C. After amplification, the products were digested with DpnI (ER1701; Thermo Fisher Scientific) for 1 h at 37°C and transformed into TOP10 chemically competent E. coli (Thermo Fisher Scientific). Plasmids were isolated using a GeneJET Plasmid Miniprep Kit (Thermo Fisher Scientific) according to the manufacturer's protocol, and the generated point mutations were verified by DNA sequencing (Seqlab Microsynth).
as §1

[2] = cited from earlier work

CCCCC1(CCCC)CS(=O)(=O)c2ccc(N(C)C)cc2[C@@H](c2ccc(OCCCC[N+]34CCN(CC3)CC4)cc2)[C@H]1O [SC-435]
NTCP inhibition (in words) (NTCP): no significant NTCP inhibition | Inhibition curve/AUC of ASBT→mAsbt mutant compared to wild-type ASBT [1]: this effect was also observed

CCCCC1(CCCC)CN(c2ccccc2)c2cc(SC)c(OCC(=O)N[C@@H](C(=O)NCC(=O)O)c3ccccc3)cc2S(=O)(=O)C1 [elobixibat]
IC50 (NTCP): 36.3 µM and 66.1 µM | Cmax, clinical drug concentration ([2]; 15 mg cohort study, ref PMDA Goofice report): Elobixibat clinical drug concentration in the 15 mg cohort study: Cmax = 0.39 ng/ml. | Inhibition curve/AUC of ASBT→mAsbt mutant compared to wild-type ASBT [1]: not different

CCCC[C@]1(CC)CS(=O)(=O)c2cc(CNC(CC(=O)O)CC(=O)O)c(OC)cc2[C@@H](c2ccccc2)N1 [linerixibat]
NTCP inhibition (in words) (NTCP): no significant NTCP inhibition | Inhibition curve/AUC of ASBT→mAsbt mutant compared to wild-type ASBT [1]: significantly reduced the AUC values | Transport inhibition at highest substrate concentration ([1]; 500 μM [3H]TC): full transport inhibition | IC50 values at increasing substrate concentrations (in words) ([1]; [3H]TC 0.3-500 μM): remained quite stable

CCCCC1(CCCC)CS(=O)(=O)c2ccc(N(C)C)cc2[C@@H](c2ccc(OCc3ccc(C[N+]45CCN(CC4)CC5)cc3)cc2)[C@H]1O [maralixibat]
IC50 (NTCP): 91.5 µM and 98.5 µM | Cmax, clinical drug concentration ([2]; 45 mg cohort study, fasted, ref EMA Livmarli assessment report variation): 1.62 ng/mL | Cmax, clinical drug concentration ([2]; 45 mg cohort study, fed, ref EMA Livmarli assessment report variation): 0.57 ng/mL

CCCCC1(CCCC)CN(c2ccccc2)c2cc(SC)c(OCC(=O)N[C@@H](C(=O)N[C@@H](CC)C(=O)O)c3ccc(O)cc3)cc2S(=O)(=O)N1 [odevixibat]
IC50 (NTCP): 9.9 µM and 17 µM | Cmax, clinical drug concentration ([2]; 120 μg/kg/day cohort study, ref FDA (URL EMA Bylvay product information)): Odevixibat clinical drug concentration in the 120 μg/kg/day cohort study: Cmax = 0.62 ng/ml. | Inhibition curve/AUC of ASBT→mAsbt mutant compared to wild-type ASBT [1]: not different
